Counter-ions that a name gives are not always drawn. Like-named read-outs stand apart in the source and are kept apart here.
Key:
A-II receptor = biological target: T1, A-II receptor (Bos taurus, UniProt P25104); assay: Inhibition of binding of angiotensin-II to angiotensin receptor (radioreceptor assay, 125I-A-II); parameters: species or system bovine (membrane fraction of bovine adrenal cortex); conditions: for inhibition at 10 µM: read-out: Radioreceptor assay, inhibition of A-II binding, 1 × 10^-5 M; for inhibition at 1 µM: read-out: Radioreceptor assay, inhibition of A-II binding, 1 × 10^-6 M
T1 construct: An A-II receptor was prepared from the membrane fraction of bovine adrenal cortex; from tissue; host or cells: bovine adrenal cortex, membrane fraction
T1 sequence (P25104 1-359): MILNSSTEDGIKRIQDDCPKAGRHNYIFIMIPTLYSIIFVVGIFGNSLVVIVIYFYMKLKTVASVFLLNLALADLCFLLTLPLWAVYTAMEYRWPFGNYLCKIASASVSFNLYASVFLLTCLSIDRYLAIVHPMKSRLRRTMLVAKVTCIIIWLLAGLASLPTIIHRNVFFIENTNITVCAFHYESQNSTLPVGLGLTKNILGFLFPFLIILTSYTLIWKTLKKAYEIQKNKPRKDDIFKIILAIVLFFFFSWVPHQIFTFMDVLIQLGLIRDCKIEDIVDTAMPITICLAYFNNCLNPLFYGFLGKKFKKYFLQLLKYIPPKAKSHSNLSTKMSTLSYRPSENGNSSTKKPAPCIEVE
Description: Inhibition of binding of angiotensin-II to angiotensin receptor
An A-II receptor was prepared from the membrane fraction of bovine adrenal cortex.

pressor action of A-II = assay: Inhibitory effect on pressor action of A-II (oral drug, i.v. A-II 100 ng/kg); assay type: in vivo, Jcl:SD rats (9 week old, male); conditions: rats, A-II 100 ng/kg i.v.; for inhibition in vivo at 3 mg/kg / inhibition in vivo at 30 mg/kg: Rattus norvegicus, po; for inhibition in vivo at 3 mg/kg: read-out: Pressor response to A II (p.o.), 3 mg/kg (percent inhibition); for inhibition in vivo at 30 mg/kg: read-out: Pressor response to A II (p.o.), 30 mg/kg (percent inhibition)
Source text: Inhibitory effect of the compound of this invention on pressor action of A-II
Jcl:SD rats (9 week old, male) were used. On the day prior to that of the experiment, these animals were applied with cannulation into the femoral artery and vein under anesthesia with pentobarbital Na. The animals were fasted but allowed free access to drinking water until the experiment was started. On the day of conducting the experiment, the artery cannula was connected with a blood-pressure transducer, and the average blood pressure was recorded by means of polygraph. […] The drugs were orally administered, and then, at each point of the measurement, A-II was administered intravenously, and the pressor action was similarly measured. By comparing the pressor action before and after administration of the drug, the percent inhibition by the drug on A-II-induced pressor action was evaluated.

[1] = 1 × 10^-5 M, bovine adrenal cortex membrane, 125I-A-II, 1 h room temperature
[2] = 1 × 10^-6 M, bovine adrenal cortex membrane, 125I-A-II, 1 h room temperature

Row | SMILES | inhibition at 10 µM (A-II receptor; [1]) | inhibition at 1 µM (A-II receptor; [2]) | inhibition in vivo at 3 mg/kg (pressor action of A-II; 3 mg/kg p.o.) | inhibition in vivo at 30 mg/kg (pressor action of A-II; 30 mg/kg p.o.) | inhibition at 10 µM (A-II receptor) | inhibition at 1 µM (A-II receptor) | Radioreceptor assay, inhibition of A-II binding, 1 × 10^-5 M (A-II receptor; [1]) | Radioreceptor assay, inhibition of A-II binding, 1 × 10^-6 M (A-II receptor; [2]) | Pressor response to A II (p.o.), 3 mg/kg (percent inhibition) (pressor action of A-II; 3 mg/kg p.o.) | Pressor response to A II (p.o.), 30 mg/kg (percent inhibition) (pressor action of A-II; 30 mg/kg p.o.)
1 | CCCCc1nc2ccccc2n1Cc1ccc(-c2ccccc2-c2nnn[nH]2)cc1 [Reference Example 17, 2-Butyl-1-[[2'-(1H-tetrazol-5-yl)biphenyl-4-yl]methyl]benzimidazole, reference compound] | 87% | 52% | < 30% | < 30% | – | – | – | – | – | –
2 | CCCCc1nc2c(C(=O)OC)cccc2n1Cc1ccc(-c2ccccc2-c2nn[nH]n2)cc1 [Reference Example 29, reference compound] | 61% | 6% | – | < 30% | – | – | – | – | – | –
3 | CCCCc1nc2cccc(C(=O)O)c2n1Cc1ccc(-c2ccccc2-c2nnn[nH]2)cc1 [Working Example 1, 2-Butyl-1-[[2'-(1H-tetrazol-5-yl)biphenyl-4-yl]methyl]benzimidazole-7-carboxylic acid] | 95% | 78% | > 70% | > 70% | – | – | – | – | – | –
4 | CCCCc1nc2cccc(C(=O)O)c2n1Cc1ccc(-c2ccccc2-c2nn[nH]n2)cc1 [Working Example 4, 2-Butyl-1-[[2'-(1H-tetrazol-5-Yl)biphenyl-4-yl]methyl]benzimidazole-7-carboxylic acid 2-sodium salt] | 91% | 71% | > 70% | > 70% | – | – | – | – | – | –
5 | CCCc1nc2cccc(C(=O)O)c2n1Cc1ccc(-c2ccccc2-c2nn[nH]n2)cc1 [Working Example 7, 2-Propyl-1-[[2'-(1H-tetrazol-5-yl)bichenyl-4-yl]methyl]benzimidazole-7-carboxylic acid] | 95% | 79% | > 70% | > 70% | – | – | – | – | – | –
6 | CCCCc1nc2cc(C)cc(C(=O)OC)c2n1Cc1ccc(-c2ccccc2-c2nn[nH]n2)cc1 [Working Example 9] | 92% | 45% | 50 to 70% | – | – | – | – | – | – | –
7 | CCCCc1nc2cc(C)cc(C(=O)O)c2n1Cc1ccc(-c2ccccc2-c2nn[nH]n2)cc1 [Working Example 10, 2-Butyl-5-methyl-1-[[2,-(1H-tetrazol-5-yl)biphenyl-4-yl]methyl]benzimidazole-7-carboxylic acid] | 90% | 40% | > 70% | > 70% | – | – | – | – | – | –
8 | CCCCc1nc2cc(Cl)cc(C(=O)OC)c2n1Cc1ccc(-c2ccccc2-c2nnn[nH]2)cc1 [Working Example 12, Methyl 2-butyl-5-chloro-1-[[2'-(1H-tetrazol-5-yl)biphenyl-4-yl]methyl]benzimidazole-7-carboxylate] | 91% | 65% | 50 to 70% | > 70% | – | – | – | – | – | –
9 | CCCCc1nc2cccc(C(=O)OCC)c2n1Cc1ccc(-c2ccccc2-c2nnn[nH]2)cc1 [Working Example 14, Ethyl 2-butyl-1-[[2'-(1H-tetrazol-5-yl)biphenyl-4-yl]methyl]benzimidazole-7-carboxylate] | 82% | 50% | 50 to 70% | > 70% | – | – | – | – | – | –
10 | CCCCc1nc2cccc(CO)c2n1Cc1ccc(-c2ccccc2-c2nnn[nH]2)cc1 [Working Example 16, 2-Butyl-7-hydroxymethyl-1-[[2'-(1H-tetrazol-5-yl)biphenyl-4-yl]methyl]benzimidazole] | 90% | 67% | – | > 70% | – | – | – | – | – | –
11 | CCCCc1nc2cccc(CC(=O)OCC)c2n1Cc1ccc(-c2ccccc2-c2nn[nH]n2)cc1 [Working Example 17, Ethyl [[2-butyl-1-[2'-(1H-tetrazol-5-Yl)biphenyl-4-yl]methyl]benzimidazol-7-yl]acetate] | 93% | 75% | 30 to 50% | – | – | – | – | – | – | –
12 | CCCCc1nc2cccc(COC)c2n1Cc1ccc(-c2ccccc2-c2nnn[nH]2)cc1 [Working Example 19, 2-butyl-7-methoxymethyl-1-[[2'-(1H-tetrazol-5-yl)biphenyl-4-yl]methyl]benzimidazole sodium salt] | – | – | 30 to 50% | – | 90% | 60% | – | – | – | –
13 | CCc1nc2cccc(C(=O)O)c2n1Cc1ccc(-c2ccccc2-c2nn[nH]n2)cc1 [Working Example 27] | 96% | 91% | > 70% | > 70% | – | – | – | – | – | –
14 | CC(C)c1nc2cccc(C(=O)O)c2n1Cc1ccc(-c2ccccc2-c2nnn[nH]2)cc1 [Working Example 28, 2-Isopropyl-1-[[2'-(1H-tetrazol-5-yl)biphenyl-4-yl]methyl]benzimidazole-7-carboxylic acid] | 98% | 88% | 30 to 50% | – | – | – | – | – | – | –
15 | CCCCc1nc2cccc(C(=O)O)c2n1Cc1ccc(-c2ccccc2-c2nn[nH]n2)cc1 [Working Example 29, 2-Butyl-1-[[2'-(1H-tetrazol-5-yl)biphenyl-4-yl]methyl]benzimidazole-7-carboxylic acid 2.potassium salt] | – | – | – | – | – | – | 87 | 60 | +++ (+++ ≥70%) | +++ (+++ ≥70%)
16 | CCCc1nc2cccc(C(=O)OC)c2n1Cc1ccc(-c2ccccc2-c2nnn[nH]2)cc1 [Working Example 31, Methyl 2-propyl-1-[[2'-(1H-tetrazol-5-yl)biphenyl-4-yl)methyl]benzimidazole-7-carboxylate] | 92% | 78% | > 70% | > 70% | – | – | – | – | – | –
17 | CCCCc1nc2cccc(C(=O)OC)c2n1Cc1ccc(-c2ccccc2-c2nnn[nH]2)cc1 [Working Example 34, Methyl 2-butyl-1-[[2'-(1H-tetrazol-5-yl)biphenyl-4-yl]methyl]benzimidazole-7-carboxylate] | 90% | 66% | > 70% | > 70% | – | – | – | – | – | –
18 | CCCCc1nc2cccc(C(=O)OCOC(=O)C(C)(C)C)c2n1Cc1ccc(-c2ccccc2-c2nn[nH]n2)cc1 [Working Example 36] | 95% | 86% | > 70% | > 70% | – | – | – | – | – | –
19 | CCCCc1nc2cccc(C(=O)OC(C)OC(=O)OC3CCCCC3)c2n1Cc1ccc(-c2ccccc2-c2nn[nH]n2)cc1 (stereo not shown) [Working Example 37] | 94% | 65% | > 70% | > 70% | – | – | – | – | – | –
20 | CCCCc1nc2cccc(C(=O)OCc3oc(=O)oc3C)c2n1Cc1ccc(-c2ccccc2-c2nn[nH]n2)cc1 [Working Example 39] | 97% | 83% | > 70% | > 70% | – | – | – | – | – | –
21 | CCCCc1nc2ccccc2n1Cc1ccc(-c2ccccc2C(=O)O)cc1 [compound 26, 2-[4-(2-Butylbenzimidazol-1-yl)methylphenyl]benzoic acid, reference compound] | 87% | 48% | – | – | – | – | – | – | – | –
